Patent US8710069B2, “Opioid-nornicotine codrugs combinations for pain management” (University of Kentucky Research Foundation, priority 2008, dated 2014)
Several values for one entry are separate records, joined by “and”; a condition that tells them apart may be missing. Equal entries are not always repeated.

Columns and labels:
[1] = following peripheral administration of nicotine; cited from earlier work
[2] = test system: Rat; test: Tail-Flick test after intrathecal (IT) injection, AI 40%, cut-off 10 sec; format: in vivo; conditions: IT nornicotine perchlorate 10 ug/10 ul alone, Day 1, one rat per line, cutoff 10 sec; for Tail-Flick 5 min.: 5 min after injection; for Tail-Flick 10 min.: 10 min after injection; for Tail-Flick 15 min.: 15 min after injection; for Tail-Flick 30 min.: 30 min after injection; for Tail-Flick 45 min.: 45 min after injection; for Tail-Flick 60 min.: 60 min after injection
Method: • Experiment: Tail-Flick—Al at 40%; cut-off 10 sec. • Measurements will be taken at baseline (2×), 5, 10, 15, 30, 45, 60, 90, 120 minutes after drug administration. • Drug Treatment: • […] will be administered in a 10 ul vol., followed by a 10 ul saline flush. • Both R- & S-nornicotine will be tested. • Preparation of Solution: • 10 ug in 10 ul vol. • 100 ug in 100 ul vol. • […]. • 1 mg in 1 ml=10 mg/10 ml vol. • Drug Administration Schedule:
IT—Narnicotine Perchlorate—Day 1 Tail-Flick—IITC Life Science Model 33 Series 8 • Al=40% Cutoff=10 sec. […]

[3] = test system: Rat; format: in vivo; conditions: IT nornicotine perchlorate 10 ug/10 ul, Day 1
Method: • Experiment: Tail-Flick—Al at 40%; cut-off 10 sec. • Measurements will be taken at baseline (2×), 5, 10, 15, 30, 45, 60, 90, 120 minutes after drug administration. • Drug Treatment: • […] will be administered in a 10 ul vol., followed by a 10 ul saline flush. • Both R- & S-nornicotine will be tested. • Preparation of Solution: • 10 ug in 10 ul vol. • 100 ug in 100 ul vol. • […]. • 1 mg in 1 ml=10 mg/10 ml vol. • Drug Administration Schedule: […]

[4] = following repeated nicotine dosing; cited from earlier work

| Compound | residence in the rat's brain [1] | Tail-Flick 5 min. [2] | Tail-Flick 10 min. [2] | Tail-Flick 15 min. [2] | Tail-Flick 30 min. [2] | Tail-Flick 45 min. [2] | Tail-Flick 60 min. [2] | Behavior: side effects [3] | residence in the rat's brain, times longer than nicotine [1] | accumulation in the brain compared to nicotine [4] |
| --- | --- | --- | --- | --- | --- | --- | --- | --- | --- | --- |
| CN1CCCC1c1cccnc1 (stereo not drawn) [nicotine] | 52 min |  |  |  |  |  |  |  |  |  |
| c1cncc([C@@H]2CCCN2)c1 [S, S-nornicotine] |  | 9.06 s and 8.01 s and 4.40 s and 8.17 s and 3.84 s | 6.39 s and 5.47 s and 5.60 s and 6.21 s and 3.21 s | 4.58 s and 4.33 s and 6.08 s and 3.29 s and 3.56 s | 6.14 s and 3.31 s and 4.85 s and 3.47 s and 4.05 s | 3.95 s and 3.57 s and 2.23 s and 4.60 s and 4.07 s | 4.11 sec and 3.35 sec (2×) and 4.27 sec and 4.26 sec | no obvious side effects |  |  |
| c1cncc([C@H]2CCCN2)c1 [R, R-nornicotine] |  | 3.04 s and 5.00 s and 5.47 s and 2.16 s and 6.67 s | 2.23 s and 4.08 s and 2.53 s and 1.80 s and 5.95 s | 3.16 sec and 4.34 sec and 2.82 sec (2×) and 2.86 sec | 2.55 s and 3.13 s and 3.90 s and 2.73 s and 4.14 s | 3.13 s and 2.87 s and 4.26 s and 2.40 s and 4.95 s | 2.19 s and 2.75 s and 3.12 s and 2.63 s and 3.93 s | no noticeable side effects |  |  |
| c1cncc([C@@H]2CCCN2)c1 [nornicotine] | 166 min |  |  |  |  |  |  |  | about 3 times | about 4 fold |
